Assay results: patent US8357681B2, “Composition and method for controlling pests” (priority 2008, dated 2013)

Test system: Pythium ultimum, pathogen of cucumber damping-off
Test: Cucumber damping-off seed treatment test (Test Example 1)
Assay type: in vivo
Conditions: cucumber seeds, 18° C., 13 days
Excerpt: An acetone solution of ethaboxam and an acetone solution of clothianidin were mixed to prepare mixed liquids containing ethaboxam and clothianidin in predetermined concentration. These mixed liquids were adhered on the surface of cucumber (Sagamihanjiro) seeds and allowed to stand still overnight. A plastic pot was filled with sandy soil and the seeds were disseminated on it. Then the seeds were covered with sandy soil which had been mixed with a bran medium on which Pythium ultimum, pathogen of cucumber damping-off, had been allowed to grow. They were irrigated and allowed to grow at 18° C. under humidity for 13 days, and thereafter control effect was checked.
As a comparison, acetone solutions containing ethaboxam in the predetermined concentration and acetone solutions containing clothianidin in the predetermined concentration were prepared and subjected to similar tests.
The incidence of disease was calculated by Equation 1 and the control value was calculated by Equation 2 based on the incidence of disease.
A: Incidence of disease of plant in untreated area
B: Incidence of disease of plant in treated area
E=X+Y−(X×Y)/100 “Equation 2”

Structure (SMILES) | Actual control value (ethaboxam 5 g ai/100 kg-seed alone) | Actual control value (ethaboxam 10 g ai/100 kg-seed alone) | Actual control value (clothianidin 150 g ai/100 kg-seed alone) | Actual control value (clothianidin 300 g ai/100 kg-seed alone)
CCNc1nc(CC)c(C(=O)NC(C#N)c2cccs2)s1 (stereo not shown) [Ethaboxam, ethaboxam] | 60% | 73% |  | 
CN/C(=N\[N+](=O)[O-])NCc1cnc(Cl)s1 [clothianidin] |  |  | 0.0% | 0.0%
